One molecule from BindingDB's records for doi:10.1124/jpet.104.066688 (Acadia Pharmaceuticals, 2004) can be followed below.

SMILES strings stand for the structures. pKi: −log10 of the molar value.

This test concerns the target T1, 5-hydroxytryptamine receptor 2C (Homo sapiens, UniProt P28335).
T1 sequence (P28335 whole entry): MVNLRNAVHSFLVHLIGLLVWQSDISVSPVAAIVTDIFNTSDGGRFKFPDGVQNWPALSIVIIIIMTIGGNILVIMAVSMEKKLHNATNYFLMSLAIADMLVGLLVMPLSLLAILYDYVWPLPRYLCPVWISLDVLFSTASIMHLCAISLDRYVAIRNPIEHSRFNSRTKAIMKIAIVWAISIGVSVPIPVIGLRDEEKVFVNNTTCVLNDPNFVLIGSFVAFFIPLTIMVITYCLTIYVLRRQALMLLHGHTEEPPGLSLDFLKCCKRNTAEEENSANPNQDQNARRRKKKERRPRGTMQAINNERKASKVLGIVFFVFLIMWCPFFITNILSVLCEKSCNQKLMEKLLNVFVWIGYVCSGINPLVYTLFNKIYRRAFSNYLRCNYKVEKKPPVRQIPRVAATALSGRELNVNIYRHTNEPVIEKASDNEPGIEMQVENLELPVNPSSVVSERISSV

`COc1ccc(CC(=O)N(Cc2ccc(C)cc2)C2CCN(C)CC2)cc1` [N-(4-Methylbenzyl)-N-(1-methyl-4-piperidinyl)-4-methoxybenzeneacetamide] gave a pKi of 8.54.

As usually defined, the pKi is −log10 of the Ki, conventionally taken in molar units. A high value points to a low Ki.
